Experimental data as given in patent publication US12303468B2, “Compositions comprising one or more (bio)-alkanediols with antioxidants” (Symrise AG, priority 2020, dated 2025).
Several values for one entry are separate records, joined by “and”; a condition that tells them apart may be missing. Equal entries are not always repeated. Each block holds one compound with its values, some of them ahead of it.

Assays:
[1] = Oxipres test (induction period, product protection); type: physicochemical; settings: for antioxidative boosting (prolonged induction time, less rancidity and reduced acid value), in words: alkanediol in combination with antioxidant (tocopherol) in sunflower oil
Protocol: To evaluate the influence of 1,2-alkanediols or of 2,3-alkanediols on the antioxidative capacity of antioxidants, two different tests were performed: • (1) Oxipres treatment to simulate product protection; and • (2) Evaluation of reactive oxygen species (ROS) for skin protection.
The following tests were performed with sunflower oil +/− antioxidant and +/− alkanediols. […] Treating it with heat and oxygen triggers and accelerates oxidation easily.
An Oxipres test was performed in order to evaluate the antioxidative capacity of different test samples as described below.
Test procedure: For the evaluation of the antioxidative capacity of the above-described samples, an Oxipres test was conducted. The Oxipres method is bases on oxygen consumption at high temperatures and pressures and allows the determination of oxidative resistance (shelf life) of e.g. oils. The test runs under elevated pressure and temperature, where the process is accelerated. In the Oxipres test the sample is placed inside a hermetically closed iron vessel that is subjected to high oxygen pressures and temperatures of 90 to 120° C. […] The consumption of oxygen results in a pressure drop in the vessel during the test. Higher decrease of pressure indicates more consumption of oxygen and higher oxidation of the test product. Oils with a high degree of unsaturation are most susceptible to autoxidation.
In the test, the antioxidants are oxidized preferentially before the oxidizable fat or oil is oxidized. Thus, the antioxidants protect the fat or oil against oxidation. After this there is a sudden and large consumption of oxygen and the fat becomes rancid. This can be defined by the induction period (IP) in hours. A lower IP correlates with a faster oxidation.
Equipment: The tests were performed with an Oxipres device ex Mikrolab. The instrument is a modification of the bomb method (ASTM D941), which is based on oxidation with oxygen.

[2] = tested on: reactive oxygen species (ROS) on ex vivo skin; assay: DCF assay on ex vivo skin biopsies, aqueous/alcoholic (ethanolic) test samples; type: cell-based; settings: only the vehicle and the alkanediol, no antioxidant
Protocol: A dichlorofluorescein test (DCF) assay was performed in order to determine the amount of reactive oxygen species (ROS) on ex vivo skin treated with different test samples in a lipophilic or an aqueous/alcoholic system as described below.
DCF assay—assay principle: Ex vivo skin was incubated with 2′,7′-dichlorodihydrofluorescein diacetate at 37° C., 5% CO2. After PBS washing, samples were exposed or not to cumene hydroperoxide. Immediately after exposure, ex vivo skin samples were frozen in liquid nitrogen and 5 μm cryostat sections were made and fixed with acetone to allow the visualisation of fluorescence generated by ROS in cells of the reconstructed skins. […] Green fluorescence was quantified in ex vivo skin using ImageJ software. The depth of immunostaining was measured as follows: green DCFH-DE positive cells were automatically detected using Histolab software and the distance between dermal epidermal junction and the deepest positive cells were measured in each condition. Means were compared using a student's test. […]
The image acquisition was performed by using Olympus BX51 microscope and Olympus DP70 camera. For each skin sample two skin sections have been taken and the related fluorescent images acquired and analyzed. Thus, for each test condition, 12 images have been acquired and analyzed (i.e. 12 data). The analysis of fluorescence has been performed within the dermis area. […]

[3] = tested on: reactive oxygen species (ROS) on monolayer cells; assay: DCF assay on monolayer cells (2D); type: cell-based; settings: 300 μM H2O2, Untreated = 100
Protocol: A dichlorofluorescein test (DCF) assay was performed in order to determine the amount of reactive oxygen species (ROS) on monolayer cells with different test samples as described below.
DCF assay—assay principle (2D): One procedure to quantify intracellular radicals in a cell model is by using the dichlorofluorescein (DCF) assay. […] By intracellular esterases and oxidation, the nonfluorescent H2DCFDA is converted to the highly fluorescent 2′,7′-dichlorofluorescein (DCF). The nonfluorescent fluorescein (2′,7′-dichlorofluorescein diacetate (DCFH-DA)) passes the cell membranes. In the cytoplasm, it is cleaved by intracellular esterases and cannot leave the cell in this form. The oxidation by intracellularly existing ROS (reactive oxygen species) modifies the molecule so that will become DCF and emits fluorescence. ROS stimulation is done by exposure to 300 μM H2O2 for 1 h.
The determination of the anti-oxidative capacity is performed in 96-well microplates from Nunc (Wiesbaden, Germany) and with the microplate reader “Spark” from Tecan (Crailsheim, Germany). Cells are seeded in a black 96 well microplate with transparent bottom and incubated at 37° C. After 24 h the supernatant is decanted and fresh media with 0.1% FBS is added. Further 24 hours later the supernatant is decanted again and the test samples are added and incubated for 24 h. As a positive control Trolox is always co-tested. 300 μM H2O2 is used as ROS source (1 h exposure) The emitted fluorescence is measured from bottom of well at EX/EM 485/528 nm.
The antioxidative capacity is expressed as relative reduction of the stimulated control, which can be determined by rule of proportion in combination with the control.

[4] = tested on: IL-8 produced and secreted by HaCaT cells; assay: Interleukin 8 (IL-8) ELISA; type: cell-based, human; settings: IL 1-alpha stimulated
Protocol: Interleukin 8 (IL-8) is increased by various kinds of stress including UV and oxidant stress, which thereby cause the recruitment of inflammatory cells and induces further increase in oxidant stress mediators, making it a key parameter in localized inflammation.
An IL-8 ELISA (enzyme lined immunosorbance assay) was performed in order to determine IL-8 produced and secreted by cells from the cell supernatant utilizing antibodies detecting the IL-8.
Experimental procedure: HaCaT cells (spontaneously transformed aneuploid immortal keratinocyte cell line from adult human skin) were seeded in a black 96 well microplate with transparent bottom and incubated at 37° C. After 24 hours the supernatant is decanted and the test samples (100 μl/well) are added and incubated for 24 hours at 37° C. Then IL 1-alpha (1 ng/ml per 100 μl/well) was added as stimulant. Then the medium was changed (100 μl/well) and incubated at 37° C. After 4 h a 70 μl sample was recovered from the cell supernatant. Thereafter, an IL-8 ELISA is carried out with the cell supernatant sample.
The lower the IL-8 concentration the better the […] effect of the antioxidant of the sample.

[5] = Solubility of alkanediols in water; type: physicochemical; settings: visual assessment at ambient temperature after 24 h storage at 5° C.
From the text: The water solubility of a substance is the saturation mass concentration of the substance in water at a given temperature. The determination of the solubility in water relates to essentially pure substances which are stable in water and not volatile. The determination of the water solubility of the alkanediols is further described in the following Example 7.
For the determination of the maximum water solubility of an alkanediol. water and different concentrations of the respective alkanediol were blended by stirring. […] The determination of whether the alkanediol has dissolved in water is based entirely on visual observation.

[6] = in combination with Ascorbyl Palmitate in sunflower oil
[7] = in combination with Hydroxyacetophenone in sunflower oil

SMILES: CCCCCCCCC(O)CO (stereo not shown) [1,2-decanediol]
antioxidative boosting (prolonged induction time, less rancidity and reduced acid value), in words [1]: distinguished efficacy for antioxidative boosting

induction period, in words [1, 6]: remarkably prolonged induction periods
induction period, in words [1, 7]: remarkably prolonged induction periods
Maximum solubility in water [5]: 2.5 % by weight
SMILES: CCCCCC(O)CO (stereo not shown) [1,2-heptanediol]
antioxidative boosting (prolonged induction time, less rancidity and reduced acid value), in words [1]: distinguished efficacy for antioxidative boosting
antioxidative efficacy, in words [2]: do not have an antioxidative efficacy
Mean, ROS concentration (%) ([3]; 500 μM): 112%
IL-8 concentration ([4]; 500 μM): 959.8 pg/mL and 959.85 pg/mL

Maximum solubility in water [5]: 0.1 % by weight
SMILES: CCCCCCCC(O)CO (stereo not shown) [1,2-nonediol, 1,2-nonanediol]
antioxidative boosting (prolonged induction time, less rancidity and reduced acid value), in words [1]: distinguished efficacy for antioxidative boosting

induction period, in words [1, 6]: remarkably prolonged induction periods
induction period, in words [1, 7]: remarkably prolonged induction periods
Maximum solubility in water [5]: 3.6 % by weight
SMILES: CCCCC(O)C(C)O (stereo not shown) [2,3-heptanediol]
antioxidative efficacy, in words [2]: do not have an antioxidative efficacy

induction period, in words ([1]; sunflower oil, tocopherol series (samples 1-43), versus comparative samples of the series): prolonged induction periods
SMILES: CCCC(O)C(C)O (stereo not shown) [2,3-hexanediol]

Maximum solubility in water [5]: 0.3 % by weight
SMILES: CCCCCCC(O)C(C)O (stereo not shown) [2,3-nonanediol]

Maximum solubility in water [5]: 1.5 % by weight
SMILES: CCCCCC(O)C(C)O (stereo not shown) [2,3-octanediol]
antioxidative boosting (prolonged induction time, less rancidity and reduced acid value), in words [1]: distinguished efficacy for antioxidative boosting
Mean, ROS concentration (%) ([3]; 500 μM): 98%

SMILES: NCCC(=O)N[C@@H](Cc1cnc[nH]1)C(=O)O [Carnosine]
Mean, ROS concentration (%) ([3]; 10 mM): 96%

Maximum solubility in water [5]: 50 % by weight
SMILES: CCCCC(O)CO (stereo not shown) [Hydrolite ® 6]

Maximum solubility in water [5]: 0.5 % by weight
SMILES: CCCCCCC(O)CO (stereo not shown) [Hydrolite ® 8]

SMILES: CC1=C(/C=C/C(C)=C/C=C/C(C)=C/C(=O)OCC(=O)C(C)(C)C)C(C)(C)CCC1 [Hydroxypinacolone Retinoate]
Mean, ROS concentration (%) ([3]; 5 μM + 500 μM): 53%

SMILES: CC1=C(/C=C/C(C)=C/C=C/C(C)=C/CO)C(C)(C)CCC1 [all trans-Retinol, reference compound]
Mean, ROS concentration (%) ([3]; 50 μM): 100%
IL-8 concentration ([4]; 50 μM): 670.8 pg/mL and 670.84 pg/mL

SMILES: Cc1c(C)c2c(c(C)c1O)CC[C@@](C)(CCC[C@H](C)CCC[C@H](C)CCCC(C)C)O2 [alpha-Tocopherol]
Mean, ROS concentration (%) ([3]; 50 μM): 45%
Mean, ROS concentration (%) ([3]; 100 μM): 58%

SMILES: N=C(N)NCCC[C@H](NC(=O)C[C@H](N)C(=O)O)C(=O)O [beta-aspartyl arginine]
Mean, ROS concentration (%) ([3]; 10000 μM): 103%
